# Values quoted from earlier work in patent publication US20040023969A1, “Combination of an allosteric alkyne inhibitor of matrix metalloproteinase-13 with celecoxib or valdecoxib” (priority 2002, published 2004).
smiles,measurement,setting,value
"Cc1onc(-c2ccccc2)c1-c1ccc(S(N)(=O)=O)cc1 [valdecoxib, 4-(5-methyl-3-phenyl-4-isoxazolyl)-benzenesulfonamide]",Tolerability in clinical studies,combined analysis of various clinical studies,well tolerated
same,"Overall upper gastrointestinal safety profile (ulcers, perforations, obstructions and GI bleeds)","compared with ibuprofen, diclofenac and naproxen",significantly better than the conventional NSAIDs studied
